Test results as given in the supplement of paper PMC5908809.

Columns and labels:
[1] = test system: normal primary NK cells, pool 1 (3 donors) (IL-2 2.5 ng/mL); experiment: drug sensitivity score (DSS) (DSS units); higher = more sensitive; extreme values may be limits of the assay; conditions: 72 h
[2] = test system: IMC-1 (IL-2 20 ng/mL); experiment: as above; conditions: 72 h
[3] = test system: NK-YS (IL-2 2.5 ng/mL); experiment: as above; conditions: 72 h
[4] = test system: YT (IL-2 2.5 ng/mL); experiment: as above; conditions: 72 h
[5] = test system: DERL-7 (IL-2 2.5 ng/mL); experiment: as above; conditions: 72 h
[6] = test system: normal primary NK cells, pool 2 (3 donors) (IL-2 2.5 ng/mL); experiment: as above; conditions: 72 h
[7] = test system: NK-92 (IL-2 2.5 ng/mL); experiment: as above; conditions: 72 h
[8] = test system: KHYG-1 (IL-2 2.5 ng/mL); experiment: as above; conditions: 72 h
[9] = test system: normal primary NK cells, pool 1 (3 donors), resting (IL-2 0 ng/mL); experiment: as above; conditions: 72 h
[10] = test system: normal primary NK cells, pool 3 (3 donors) (IL-2 2.5 ng/mL); experiment: as above; conditions: 72 h
[11] = test system: NKL (IL-2 2.5 ng/mL); experiment: as above; conditions: 72 h
[12] = test system: KAI3 (IL-2 2.5 ng/mL); experiment: as above; conditions: 72 h
[13] = test system: SNK-6 (IL-2 2.5 ng/mL); experiment: as above; conditions: 72 h
[14] = test system: normal NK cells expanded with K562-aAPC; experiment: as above; conditions: 72 h; IL-2 2.5 ng/mL
Description: (§1)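 Drug sensitivity and resistance testing on K562-aAPC-expanded normal NK cells: 5 concentrations (10-fold steps over a 10,000-fold range), 72 h at 37 °C, viability by CellTiter-Glo normalised to DMSO and benzethonium chloride controls; DSS from the fitted curve.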

[15] = test system: normal NK cells expanded with K562-aAPC; experiment: percent inhibition of viability; higher = more inhibition; conditions: 72 h, IL-2 2.5 ng/mL
Description: as §1

[16] = test system: normal primary NK cells, pool 1 (3 donors) (IL-2 2.5 ng/mL); experiment: as above; conditions: 72 h
[17] = test system: IMC-1 (IL-2 20 ng/mL); experiment: as above; conditions: 72 h
[18] = test system: NK-YS (IL-2 2.5 ng/mL); experiment: as above; conditions: 72 h
[19] = test system: YT (IL-2 2.5 ng/mL); experiment: as above; conditions: 72 h
[20] = test system: DERL-7 (IL-2 2.5 ng/mL); experiment: as above; conditions: 72 h
[21] = test system: normal primary NK cells, pool 2 (3 donors) (IL-2 2.5 ng/mL); experiment: as above; conditions: 72 h
[22] = test system: NK-92 (IL-2 2.5 ng/mL); experiment: as above; conditions: 72 h
[23] = test system: KHYG-1 (IL-2 2.5 ng/mL); experiment: as above; conditions: 72 h
[24] = test system: normal primary NK cells, pool 1 (3 donors), resting (IL-2 0 ng/mL); experiment: as above; conditions: 72 h
[25] = test system: normal primary NK cells, pool 3 (3 donors) (IL-2 2.5 ng/mL); experiment: as above; conditions: 72 h
[26] = test system: NKL (IL-2 2.5 ng/mL); experiment: as above; conditions: 72 h
[27] = test system: KAI3 (IL-2 2.5 ng/mL); experiment: as above; conditions: 72 h
[28] = test system: SNK-6 (IL-2 2.5 ng/mL); experiment: as above; conditions: 72 h

Oc1ccc2c(c1)CC[C@H](c1ccccc1)[C@@H]2c1ccc(OCCN2CCCC2)cc1 [Lasofoxifene] (max concentration tested 1000 nM)
Conditions	drug sensitivity score
[1]	0
[2]	0.95
[3]	0
[4]	0
[5]	0
[6]	0
[7]	0
[8]	0
[9]	0
[10]	0
[11]	0
[12]	0.26
[13]	0
[14]	0.59

percent inhibition of viability [%]
Conditions	0.1 nM	1 nM	10 nM	100 nM	1000 nM
[15]	-6.28	-2.87	-0.97	5.89	14.2
[16]	-0.49	-5.39	5.47	-10.7	0.81
[17]	0.35	0.07	4.03	6.29	19.9
[18]	1.84	-2.69	2.36	-0.77	10.5
[19]	2.75	2.01	2.57	-4.31	1.17
[20]	-2.25	-2.91	-6	-9.21	0.79
[21]	-15.6	-6.78	-5.24	-11.7	-1.2
[22]	6.27	1.85	5.66	-5.53	1.52
[23]	-2.09	-2.31	1.74	5.02	8.46
[24]	7.2	-0.67	3.19	-7	6.03
[25]	-15.8	-8.59	-8.05	-11	-1.01
[26]	-11.5	-1.59	-8.69	-4.01	-9.81
[27]	-1.79	-1.38	0	-0.11	15.5
[28]	4.04	34.2	14.3	17.7	-1.3

COc1cccc2c1C(=O)c1c(O)c3c(c(O)c1C2=O)C[C@@](O)(C(=O)CO)C[C@@H]3O[C@H]1C[C@H](N)[C@H](O)[C@H](C)O1 [Doxorubicin] (max concentration tested 1000 nM)
Conditions	drug sensitivity score
[1]	10.3
[2]	16
[3]	17.1
[4]	13.3
[5]	17.4
[6]	10.2
[7]	12.8
[8]	14.6
[9]	13.3
[10]	8.97
[11]	28.7
[12]	16.2
[13]	15.5
[14]	10.8

percent inhibition of viability [%]
Conditions	0.1 nM	1 nM	10 nM	100 nM	1000 nM
[15]	-3.12	-5.25	-1.72	39.8	99.8
[16]	-9.2	-4.36	4.47	40.8	96.5
[17]	-7.6	-2.62	-0.06	88.2	99.8
[18]	-8.43	-6.33	14.6	83.5	95.3
[19]	-4.73	-5.55	-0.81	69.3	97.2
[20]	-0.26	-4.85	13.4	85.9	100
[21]	-14	-6.82	-8.6	37.2	94.4
[22]	-8.55	11.3	-2.45	64.2	96.6
[23]	-8.45	-6.72	-0.27	79.3	98.3
[24]	-18	-16.6	1.78	70.1	92.1
[25]	-4.57	-14.4	-9.04	23.1	97.2
[26]	-17.6	-0.29	89.2	102	97.3
[27]	-17.1	-0.05	19.4	74.9	89.1
[28]	20	14.8	5.01	80.6	94.3
